Where two headings read alike, the source gives them in different places.
Assays:
CV-1 cells = assay: selective killing assay, colony number reduced to 50% of control, normal monkey kidney epithelial cell line CV-1; assay type: cell-based; details: 24 hours treatment; for IC50: Primates
From the text: (§1) The control received culture media only.

CX-1 cells = assay: selective killing assay, colony number reduced to 50% of control, human colon carcinoma cell line CX-1; assay type: cell-based; details: for Selectivity (ratio of IC50 for CV-1 and IC50 for CX-1): CV-1/CX-1; for IC50 / CX-1 (IC50): human colon carcinoma, 24 hours treatment, colony count after 7 to 10 days;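 as to all read-outs here: colonies stained with crystal violet and counted, control cells given medium alone, exposure at 37 °C, normal monkey kidney epithelial CV-1 cells as the non-cancer comparator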
Description: (§2) Human colon carcinoma cell line CX-1 or normal monkey kidney epithelial cell line CV-1 was chosen as representatives of cancer cells and normal cells, respectively. […] CX-1 cells (2,000 cells/well) and CV-1 cells (1,000 cells/well) were plated in 24-well plastic culture plates. […] The control received culture media only. Cells were treated with compounds of General Formulas (I) to (V) at 37° C. for 24 hours. After rinsing with fresh culture medium three times, the cells were further incubated at 37° C. for 7 to 10 days. Cell colonies were fixed and stained with 2% crystal violet in 70% ethanol for 10 minutes and rinsed in water. […] The selectivity is defined as the ratio of IC50 for CV-1 and IC50 for CX-1.

EJ cells = assay: colony assay of Example 1 with human bladder carcinoma EJ cell line; assay type: cell-based; details: for Selectivity: CV-1/EJ; for IC50: Homo sapiens, EJ, 24 h; for IC50 / EJ (IC50): Table IV, human bladder carcinoma, 24 hours treatment;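 as to all read-outs here: colony formation assay with 24 h compound exposure at 37 °C, then 7–10 days drug-free regrowth, colonies stained with crystal violet, controls given medium alone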
Description: as §2

MCF-7 cells = assay: colony assay of Example 1 with human breast carcinoma MCF-7 cell line; assay type: cell-based; details: for Selectivity: CV-1/MCF-7; for IC50: Homo sapiens, MCF7, 24 h, Table VI, human breast carcinoma, 24 hours treatment
From the text: as §1

LOX cells = assay: colony assay of Example 1 with human melanoma LOX cell line; assay type: cell-based; details: for Selectivity: CV-1/LOX; for IC50: Homo sapiens, LOX, 24 h; for IC50 / LOX(IC50): Table V, human melanoma, 24 hours treatment;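 as to all read-outs here: colony formation assay with 24 h exposure at 37 °C, then 7 to 10 days of regrowth, crystal violet staining of colonies, control wells given medium alone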
Description: as §2

human melanoma LOX = assay: survival of nude mice implanted with human melanoma LOX; assay type: in vivo, male athymic Swiss nu/nu mouse (human tumor)
Description: LOX, a human melanoma cell line, grown subcutaneously in nude mice was excised, trypsinized to yield a single cell suspension using a metal grid with a […] mesh. […] Five million viable trypan blue negative cells made up in 0.1 ml of Dulbecco modified Eagle medium (DMFE) were injected into the peritoneal cavity of a male athymic Swiss nu/nu mouse. The control group and each treatment group consisted of 5 to 10 mice. Treatment was commenced the following day by intraperitoneal injection.
Ten control mice received 0.25 ml of 2% dextrose on these days the treated groups were injected with the compounds of this invention. […] T/C is the ratio, expressed as a percentage of the mean survival age of the treated group to the mean survival age of the untreated control group.

CRL 1420 cells = assay: colony assay of Example 1 with human pancreatic carcinoma CRL 1420 cell line; assay type: cell-based; details: for Selectivity: CV-1/CRL-1420; for IC50: Homo sapiens, 24 h; for IC50 / CRL-1420(IC50): Table VII, human pancreatic carcinoma, 24 hours treatment;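 as to all read-outs here: colony formation assay, cells exposed for 24 h then regrown 7 to 10 days without compound, colonies stained with crystal violet, control given medium alone, normal reference CV-1 monkey kidney epithelial cells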
[1] = CV-1, Table III, normal monkey kidney epithelial cells, colony count after 7 to 10 days
[2] = Table III, normal monkey kidney epithelial cells, colony count after 7 to 10 days
[3] = 5 mg/kg i.p. on day 1, 4, 8, 11

Compound | IC50 (CV-1 cells; CV-1, 24 h, Table IV) | IC50 (CV-1 cells; CV-1, 24 h, Table V) | IC50 (CV-1 cells; CV-1, 24 h, Table VI) | IC50 (CV-1 cells; [1]) | Selectivity (ratio of IC50 for CV-1 and IC50 for CX-1) (CX-1 cells) | IC50 (CX-1 cells; Homo sapiens, CX-1, Table III) | Selectivity (EJ cells) | IC50 (EJ cells) | Selectivity (MCF-7 cells) | IC50 (MCF-7 cells) | Selectivity (LOX cells) | IC50 (LOX cells) | Selectivity (CRL 1420 cells) | IC50 (CRL 1420 cells) | IC50 (CV-1 cells; CV-1, 24 h, Table VII) | other results
CCn1c(=Cc2sc3c4ccccc4ccc3[n+]2CC)sc(=C2Sc3ccccc3N2C)c1=O [Compound 31] | 10 mg/L | 10 mg/L | 10 mg/L | 10 mg/L | 333 | 0.03 mg/L | 500 | 0.02 mg/L | 250 | 0.04 mg/L | 250 | 0.04 mg/L |  |  |  | response vs control in vivo at 5 mg/kg (human melanoma LOX; Mus musculus, ip, 24 h, 5 mg/kg i.p. on day 1, 4, 8, 11, read-out: T/C): 153%
CCn1c(=Cc2sc3ccc4ccccc4c3[n+]2CC)sc(=C2SCCN2C)c1=O [Compound 224] |  | 20 mg/L | 20 mg/L | 20 mg/L | 250 |  |  |  | 200 | 0.1 mg/L | 200 | 0.1 mg/L |  |  |  | IC50 (CX-1 cells; CX-1, Table III): 0.08 mg/L; response vs control in vivo at 3 mg/kg (human melanoma LOX; Mus musculus, ip, 24 h, 3 mg/kg i.p. on day 1, 4, 8, 10, 12, read-out: T/C): 161%
CCn1c(=Cc2oc3cc4ccccc4cc3[n+]2CC)sc(=C2C=Cc3ccccc3N2C)c1=O [Compound 227] | 8 mg/L | 8 mg/L | 8 mg/L | 8 mg/L | 100 | 0.08 mg/L | 160 | 0.05 mg/L | 160 | 0.05 mg/L | 267 | 0.03 mg/L | 160 | 0.05 mg/L | 8 mg/L | 
CCn1c(=Cc2oc3c4ccccc4ccc3[n+]2CC)sc(=C2Sc3ccc4ccccc4c3N2C)c1=O [Compound 85] |  |  |  | 6 mg/L | 750 | 0.008 mg/L | 857 | 0.007 mg/L |  |  | > 600 | < 0.01 mg/L | 600 | 0.01 mg/L |  | response vs control in vivo at 5 mg/kg (human melanoma LOX; Mus musculus, ip, 24 h, 5 mg/kg i.p. on day 1, 4, 8, 11, 15, read-out: T/C): 174%
CCn1c(=CC2=[N+](CC)CCS2)sc(=C2SC3=C(CCCC3)N2C)c1=O [Compound 340] |  |  | 20 mg/L |  |  |  |  |  | 200 | 0.1 mg/L |  |  |  |  |  | response vs control in vivo at 8 mg/kg (human melanoma LOX; Mus musculus, ip, 24 h, 8 mg/kg i.p. on day 1, 3, 8, 13, read-out: T/C): 194%
CCn1c(=Cc2oc3c4ccccc4ccc3[n+]2CC)sc(=C2Sc3ccc4ccccc4c3N2C)c1=O [Compound 315] |  |  | 20 mg/L |  |  |  | 4000 |  | 400 | 0.05 mg/L | 4000 |  | 4000 |  |  | CRL-1420(IC50) (CRL 1420 cells): 0.005 mg/L; EJ (IC50) (EJ cells): 0.005 mg/L; LOX(IC50) (LOX cells): 0.005 mg/L
CCn1c(=Cc2oc3c4ccccc4ccc3[n+]2CC)sc(=C2Oc3ccc4ccccc4c3N2C)c1=O [Compound 254] | 6 mg/L | 6 mg/L | 6 mg/L |  | 120 |  | 600 | 0.01 mg/L | 200 | 0.03 mg/L | 1200 | 0.005 mg/L | 1200 | 0.005 mg/L | 6 mg/L | CX-1 (IC50) (CX-1 cells; Table III): 0.05 mg/L
CCn1c(=C2CC[n+]3c2sc2ccccc23)sc(=C2Sc3ccccc3N2C)c1=O [Compound 29] | 10 mg/L | 10 mg/L | 10 mg/L | 10 mg/L | 333 | 0.03 mg/L | 200 | 0.05 mg/L | 200 | 0.05 mg/L | 333 | 0.03 mg/L | 500 | 0.02 mg/L | 10 mg/L | 
CCn1c(=Cc2sc3ccc4ccccc4c3[n+]2CC)sc(=C2Oc3ccc4ccccc4c3N2C)c1=O [Compound 116] |  |  | 6 mg/L |  |  |  |  |  | 150 | 0.04 mg/L |  |  |  |  |  | 
CCn1c(=Cc2oc3ccc4ccccc4c3[n+]2CC)sc(=C2Oc3c(ccc4ccccc34)N2C)c1=O [Compound 253] | 6 mg/L | 6 mg/L | 6 mg/L | 6 mg/L | 120 | 0.05 mg/L | 300 | 0.02 mg/L | 200 | 0.03 mg/L | 1200 | 0.005 mg/L | 200 | 0.03 mg/L | 6 mg/L | 
CCn1c(=Cc2oc3ccccc3[n+]2C)sc(=C2Sc3ccccc3N2C)c1=O [Compound 14] |  |  |  |  | 667 |  | 400 |  |  |  | > 300 |  | 400 |  |  | CRL-1420(IC50) (CRL 1420 cells): 0.05 mg/L; CV-1 (IC50) (CV-1 cells; [2]): 20 mg/L; CV-1 (IC50) (CV-1 cells; Table IV): 20 mg/L; CV-1 (IC50) (CV-1 cells; Table V): > 30 mg/L; CV-1 (IC50) (CV-1 cells; Table VII): 20 mg/L; CX-1 (IC50) (CX-1 cells; Table III): 0.03 mg/L; EJ (IC50) (EJ cells): 0.05 mg/L; LOX(IC50) (LOX cells): < 0.1 mg/L; T/C (human melanoma LOX; [3]): 147%
CCn1c(=Cc2oc3ccccc3[n+]2C)sc(=C2Sc3ccccc3N2C)c1=O [Compound 15] |  |  |  |  | 1000 |  | 100 |  |  |  | 286 |  | 500 |  |  | CRL-1420(IC50) (CRL 1420 cells): 0.04 mg/L; CV-1 (IC50) (CV-1 cells; [2]): 20 mg/L; CV-1 (IC50) (CV-1 cells; Table IV): 20 mg/L; CV-1 (IC50) (CV-1 cells; Table V): 20 mg/L; CV-1 (IC50) (CV-1 cells; Table VII): 20 mg/L; CX-1 (IC50) (CX-1 cells; Table III): 0.02 mg/L; EJ (IC50) (EJ cells): 0.2 mg/L; LOX(IC50) (LOX cells): 0.07 mg/L; T/C (human melanoma LOX; [3]): 163%
CCn1c(=Cc2sc3ccccc3[n+]2CC)sc(=C2Sc3ccc4ccccc4c3N2C)c1=O [Compound 310] | 2 mg/L | 2 mg/L |  |  |  |  | 400 | 0.005 mg/L |  |  | 400 | 0.005 mg/L | 400 | 0.005 mg/L | 2 mg/L | response vs control in vivo at 8 mg/kg (human melanoma LOX; Mus musculus, ip, 24 h, 8 mg/kg i.p. on day 1, 3, 4, 6, 8, 10, read-out: T/C): 206%
